Assay results taken from patent publication US20140212407A1, “TREATMENT OF OBESITY” (Isis Innovation Limited, priority 2008, published 2014).

Key:
[1] = Badiou et al. 2005; cited from earlier work
[2] = Body weight and food intake in rats on MR diet with or without L-cysteine, 3 weeks; format: in vivo, rat; settings: L-cysteine 5 g/kg added to MR diet, preliminary
Text: To distinguish the effect of cysteine on body weight from that of methionine, the same experiment described above was repeated with addition of a third group. In addition to the methionine restricted (MR) and control groups, a third group was included comprising rats fed an MR diet supplemented with L-cysteine at a concentration of 5 g/kg diet. Age of the rats at the start of experiment, housing conditions and MR and control diets were similar to those in the above experiment. Food and water were provided ad libitum. Each group consisted of 8 rats; there was no significant difference in body weight between the 3 groups at baseline.

gene for CGL = settings: by inhibition of the ERK/Sp1 signalling pathway; Fiorucci et al 2005; cited from earlier work
[3] = humans, concentration-dependent; Smith et al 2003; cited from earlier work
[4] = target: cystathionine γ-lyase (CGL) (Homo sapiens, UniProt P32929); settings: Steegborn et al J Biol Chem 1999; cited from earlier work
cystathionine γ-lyase (CGL), sequence (P32929 whole entry): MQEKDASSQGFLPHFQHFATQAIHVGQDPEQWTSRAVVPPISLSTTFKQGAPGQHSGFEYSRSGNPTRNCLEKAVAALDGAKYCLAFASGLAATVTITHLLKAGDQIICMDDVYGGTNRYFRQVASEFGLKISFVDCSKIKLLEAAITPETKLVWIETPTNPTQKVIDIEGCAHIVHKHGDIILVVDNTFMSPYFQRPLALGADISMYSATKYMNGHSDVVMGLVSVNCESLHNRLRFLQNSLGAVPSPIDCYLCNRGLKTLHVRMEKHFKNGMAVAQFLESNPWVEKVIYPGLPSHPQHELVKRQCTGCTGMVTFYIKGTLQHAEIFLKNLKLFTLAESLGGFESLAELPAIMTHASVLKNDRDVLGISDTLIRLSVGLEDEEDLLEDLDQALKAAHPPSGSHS

SMILES: CC1(C)C[C@@H]1C(=O)N/C(=C\CCCCSC[C@H](N)C(=O)O)C(=O)O [Cilastatin, cilastatin]
- plasma cysteine levels [1]: lowers plasma cysteine levels

SMILES: N[C@@H](CS)C(=O)O [L-cysteine]
- effect on weight gain of MR rats [2]: prevented the decrease in weight gain

SMILES: CC(=O)Oc1ccccc1C(=O)O [aspirin]
- expression of the gene for CGL (gene for CGL): reduce expression

SMILES: COc1ccc2c(c1)c(CC(=O)O)c(C)n2C(=O)c1ccc(Cl)cc1 [indomethacin]
- expression of the gene for CGL (gene for CGL): reduce expression

SMILES: CC(C(=O)O)c1cccc(C(=O)c2ccccc2)c1 (stereo not shown) [ketoprofen]
- expression of the gene for CGL (gene for CGL): reduce expression

SMILES: O=S(=O)(O)CCS [mesna]
- plasma level of cysteine [3]: markedly reduces

SMILES: C#CCC(N)C(=O)O (stereo not shown) [propargylglycine]
- inhibition of CGL enzyme activity [4]: potent inhibitors
